# Experimental data from patent US11000033B2, “Ketone or oxime compound, and herbicide” (NISSAN CHEMICAL CORPORATION, priority 2014, dated 2021).
# Experiments:
# Format in all cases: in vivo
# [1] = test system: Echinochloa crus-galli var. crus-galli; experiment: Test Example 3: herbicidal effect by foliage application, Wagner pot (symbol H); conditions: application herbicide amount 320 g/ha
# Summary of the method: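 In a shallow-flooded alluvial soil system held at 25–30 °C, plants including rice grew for 14 days and were then sprayed over the foliage with emulsion diluted to a fixed herbicide amount. Visual rating followed at 3 weeks.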
# [2] = test system: directly sowed rice plant; experiment: Test Example 3: effect on crop by foliage application, Wagner pot (symbol b); conditions: application herbicide amount 320 g/ha
# Summary of the method: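 Steps: fill a 1/10000-are Wagner pot with alluvial soil; add water and mix to submerge at 0.1–0.5 cm depth; sow rice plus Echinochloa crus-galli var. crus-galli, Leptochloa chinensis and Cyperus difformis; grow in a 25–30 °C greenhouse.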
# Setaria viridis = experiment: Test Example 4: herbicidal effect by soil treatment (symbol G)
# Summary of the method: (§1)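 Seeds were sown in sterilized diluvial soil, covered with about 1.5 cm of soil, and the soil surface was sprayed with a water-diluted emulsion of the compound at a predetermined rate. Plants grew in a greenhouse at 25° C. to 30° C.; effects were scored visually 3 weeks after application.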
# Apera spica-venti [3] = experiment: Test Example 4: herbicidal effect by soil treatment (symbol L)
# Summary of the method: as §1
# Stellaria media [4] = experiment: Test Example 4: herbicidal effect by soil treatment (symbol P)
# Summary of the method: as §1
# soybean = experiment: Test Example 4: effect on crop by soil treatment (symbol d)
# Summary of the method: (§2)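 Crop seeds, among them rice, wheat, beet and rapeseed, were sown in sterilized diluvial soil and covered with about 1.5 cm of soil. Boxes were kept in a greenhouse at 25° C. to 30° C. for plant growth.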
# wheat = experiment: Test Example 4: effect on crop by soil treatment (symbol e)
# Summary of the method: as §2
# rapeseed = experiment: Test Example 4: effect on crop by soil treatment (symbol g)
# Summary of the method: as §2
# Digitaria ciliaris = experiment: Test Example 5: herbicidal effect by foliage application, plastic box (symbol F); conditions: 320 g/ha, 3 weeks after application
# Summary of the method: (§3)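 Sowing in sterilized diluvial soil, 14 days' greenhouse growth at 25° C. to 30° C., then uniform small-sprayer foliar application of aqueous emulsion dilution; plants scored three weeks afterwards.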
# Avena fatua = experiment: Test Example 5: herbicidal effect by foliage application, plastic box (symbol I); conditions: 320 g/ha, 3 weeks after application
# Summary of the method: as §3
# Alopecurus myosuroides = experiment: Test Example 5: herbicidal effect by foliage application, plastic box (symbol J); conditions: 320 g/ha, 3 weeks after application
# Summary of the method: as §3
# Lolium multiflorum Lam. = experiment: Test Example 5: herbicidal effect by foliage application, plastic box (symbol K); conditions: 320 g/ha, 3 weeks after application
# Summary of the method: as §3
# Apera spica-venti [5] = experiment: Test Example 5: herbicidal effect by foliage application, plastic box (symbol L); conditions: 320 g/ha, 3 weeks after application
# Summary of the method: as §3
# Chenopodium album = experiment: Test Example 5: herbicidal effect by foliage application, plastic box (symbol O); conditions: 320 g/ha, 3 weeks after application
# Summary of the method: as §3
# Stellaria media [6] = experiment: Test Example 5: herbicidal effect by foliage application, plastic box (symbol P); conditions: 320 g/ha, 3 weeks after application
# Summary of the method: as §3
# corn = experiment: Test Example 5: effect on crop by foliage application, plastic box (symbol c); conditions: 320 g/ha, 3 weeks after application
# Summary of the method: (§4)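 Foliage-application test plants come from spot sowing in sterilized diluvial soil under a soil layer of about 1.5 cm, grown at 25° C. to 30° C. in a greenhouse.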
# rice plant = experiment: Test Example 5: effect on crop by foliage application, plastic box (symbol b); conditions: 320 g/ha, 3 weeks after application
# Summary of the method: as §4
# [7] = application herbicide amount 320 g/ha
structure (smiles),measurement,setting,value
CON=C(C)CC1CC(OC(=O)COc2ccccc2OC)=C(c2c(C)cc(C)cc2C)C1=O (stereo not shown) [1-067],"herbicidal effect on H (Echinochloa crus-galli var. crus-galli), grade 0-5",[1],5 (Herbicidal ratio of 90% or more (almost completely withered))
same,"effect on crop b (directly sowed rice plant), grade 0-5",[2],5 (Herbicidal ratio of 90% or more (almost completely withered))
same,G (Setaria viridis) herbicidal effect grade,Setaria viridis; [7],5 (Herbicidal ratio of 90% or more (almost completely withered))
same,L (Apera spica-venti) herbicidal effect grade,Apera spica-venti [3]; [7],5 (Herbicidal ratio of 90% or more (almost completely withered))
same,P (Stellaria media) herbicidal effect grade,Stellaria media [4]; [7],0 (Herbicidal ratio of 5% or lower (almost no effect))
same,d (soybean) effect on crop grade,soybean; [7],0 (Herbicidal ratio of 5% or lower (almost no effect))
same,e (wheat) effect on crop grade,wheat; [7],5 (Herbicidal ratio of 90% or more (almost completely withered))
same,g (rapeseed) effect on crop grade,rapeseed; [7],4 (Herbicidal ratio of 70% or higher and lower than 90%)
same,"F: Digitaria ciliaris, herbicidal effect grade",Digitaria ciliaris,5 (Herbicidal ratio of 90% or more (almost completely withered))
same,"I: Avena fatua, herbicidal effect grade",Avena fatua,5 (Herbicidal ratio of 90% or more (almost completely withered))
same,"J: Alopecurus myosuroides, herbicidal effect grade",Alopecurus myosuroides,5 (Herbicidal ratio of 90% or more (almost completely withered))
same,"K: Lolium multiflorum Lam., herbicidal effect grade",Lolium multiflorum Lam.,3 (Herbicidal ratio of 40% or higher and lower than 70%)
same,"L: Apera spica-venti, herbicidal effect grade",Apera spica-venti [5],5 (Herbicidal ratio of 90% or more (almost completely withered))
same,"O: Chenopodium album, herbicidal effect grade",Chenopodium album,2 (Herbicidal ratio of 20% or higher and lower than 40%)
same,"P: Stellaria media, herbicidal effect grade",Stellaria media [6],3 (Herbicidal ratio of 40% or higher and lower than 70%)
same,"c: corn, effect on crop grade",corn,5 (Herbicidal ratio of 90% or more (almost completely withered))
same,"b: directly sowed rice plant, effect on crop grade",rice plant,5 (Herbicidal ratio of 90% or more (almost completely withered))
CON=C(C)CC1CC(OC(=O)COCc2ccccc2)=C(c2c(C)cc(C)cc2C)C1=O (stereo not shown) [1-094],"herbicidal effect on H (Echinochloa crus-galli var. crus-galli), grade 0-5",[1],5 (Herbicidal ratio of 90% or more (almost completely withered))
same,"effect on crop b (directly sowed rice plant), grade 0-5",[2],5 (Herbicidal ratio of 90% or more (almost completely withered))
same,"G: Setaria viridis, herbicidal effect grade",Setaria viridis; 320 g/ha,5 (Herbicidal ratio of 90% or more (almost completely withered))
same,"L: Apera spica-venti, herbicidal effect grade",Apera spica-venti [3]; 320 g/ha,5 (Herbicidal ratio of 90% or more (almost completely withered))
same,"P: Stellaria media, herbicidal effect grade",Stellaria media [4]; 320 g/ha,0 (Herbicidal ratio of 5% or lower (almost no effect))
same,"d: soybean, effect grade on crop",soybean; 320 g/ha,1 (Herbicidal ratio of 5% or higher and lower than 20%)
same,"e: wheat, effect grade on crop",wheat; 320 g/ha,3 (Herbicidal ratio of 40% or higher and lower than 70%)
same,"g: rapeseed, effect grade on crop",rapeseed; 320 g/ha,4 (Herbicidal ratio of 70% or higher and lower than 90%)
same,"F: Digitaria ciliaris, herbicidal effect (criteria 0-5)",Digitaria ciliaris,5 (Herbicidal ratio of 90% or more (almost completely withered))
same,"I: Avena fatua, herbicidal effect (criteria 0-5)",Avena fatua,5 (Herbicidal ratio of 90% or more (almost completely withered))
same,"J: Alopecurus myosuroides, herbicidal effect (criteria 0-5)",Alopecurus myosuroides,5 (Herbicidal ratio of 90% or more (almost completely withered))
same,"K: Lolium multiflorum Lam., herbicidal effect (criteria 0-5)",Lolium multiflorum Lam.,5 (Herbicidal ratio of 90% or more (almost completely withered))
same,"L: Apera spica-venti, herbicidal effect (criteria 0-5)",Apera spica-venti [5],5 (Herbicidal ratio of 90% or more (almost completely withered))
same,"O: Chenopodium album, herbicidal effect (criteria 0-5)",Chenopodium album,0 (Herbicidal ratio of 5% or lower (almost no effect))
same,"P: Stellaria media, herbicidal effect (criteria 0-5)",Stellaria media [6],3 (Herbicidal ratio of 40% or higher and lower than 70%)
same,"c: corn, effect on crop (criteria 0-5)",corn,5 (Herbicidal ratio of 90% or more (almost completely withered))
same,"b: directly sowed rice plant, effect on crop (criteria 0-5)",rice plant,5 (Herbicidal ratio of 90% or more (almost completely withered))
